Test results from patent publication US20110206623A1, “NOVEL DIPOLAR IONIC COMPOUNDS COMPRISING FORMULATIONS AND THE USE THEREOF” (EVONIK GOLDSCHMIDT GMBH, priority 2007, published 2011).

Legend:
[1] = system: skin moisture (stratum corneum), forearms of probands; test: In vivo moisturizer properties, corneometer, 2 hours after application; set-up: species or system human
Procedure: The skin moisture is determined in normal fashion using a corneometer.
With the corneometer principle, the skin moisture of the “outer layer” of the epidermis (stratum corneum) is determined by means of a capacity measurement. This principle is based on the fact that the dielectric constants of water and other substances differ. An appropriately shaped measuring capacitor reacts with different changes in capacity on the samples introduced into its sensing volume, which changes in capacity are recorded and evaluated fully automatically by the device. The active probe coated with special glass is pressed against the place on the skin to be measured and, after 1 second, the value measured by the corneometer, thus the degree of moisture on the skin surface, appears on the display
For the experiments described here, use is made of a corneometer CM 825 from Courage & Khazaka. The skin moisture was measured before and 2 hours after application of the test formulations. For this, 4 test panels were each time highlighted on the forearms of 14 probands, on which the different test formulations were applied. Before each measurement, the probands had to spend at least 15 min in a climate-controlled chamber (21-22° C., 55% R.H.).
The difference in the corneometer values before and after application of the test formulations was calculated. […]

[2] = system: skin model (reconstructed human epidermis) damaged with SDS; test: LDH release after damaging the cells with SDS, O/W cream; assay type: cell-based
Procedure: (§1) In order to be able to characterize the skin care properties of the compounds 2.1 to 2.8, various in vitro tests were carried out on skin models (reconstructed human epidermis, company: SkinEthic).
The LDH concentration was determined with a commercially available test kit (LDH test kit, Roche Diagnostics, Mannheim, Germany).
Sodium dodecyl sulphate (SDS) is known for attacking the cell membrane and for resulting in increased LDH release. The experiment described below should investigate to what extent compound 2.1 can protect the cells after damaging with SDS.
The skin model was damaged with SDS for 40 min. Subsequently, the test formulation, an O/W cream with 1 or 4% of compound 2.1, was applied. The LDH release was measured 24 h and 48 h after application of the test formulation.

[3] = system: skin model (reconstructed human epidermis) damaged with SDS; test: XTT test with an O/W cream with compound 2.1 after SDS damage; assay type: cell-based; conditions: O/W cream with compound 2.1 applied after 0.25% SDS for 40 min; 24 h incubation
Procedure: as §1
The XTT test is based on the ability of the cells to reduce the dye XTT, which can be detected photometrically. This reaction is catalyzed by mitochondrial succinate dehydrogenase and requires NAD(P)H, which can only be formed by metabolically active cells. To sum up, the XTT test describes the viability of the cells.
The XTT test was carried out with a commercially available test kit and took place according to the manufacturer's instructions (XTT Test, Roche Diagnostics, Mannheim, Germany).
The skin model was first damaged with 0.25% SDS for 40 min. Subsequently, the test formulations were applied. After incubating for a time of 24 h, the viability of the cells was determined using the XTT test.
Test formulation: see Example 3.2.

[4] = system: skin moisture, inner side of a forearm of probands; test: Long-term moisturizing effect, corneometer, two-week study; assay type: in vivo, human; conditions: 2% in test formulation 3.9, twice daily for 2 weeks; compared with vehicle; 12 probands
Procedure: In order to investigate the long-term effect of the moisturizing properties of compound 2.1, a study lasting two weeks was carried out with 12 probands. The probands received 2 formulations, one with 2% of compound 2.1 and one without active substance. They had to apply each of these formulations on the inner side of a forearm twice daily. The moisture content was measured before beginning to use and also after 2 weeks.
The moisture content was determined using a corneometer CM 825 (Courage & Khazaka). Before each measurement, the probands had to stay in a climate-controlled chamber (21-22° C., 55% R.H.) for at least 15 min. The difference in the corneometer units with respect to the starting value was calculated each time (ΔCU).

[5] = system: skin roughness, inner side of a forearm of probands; test: Skin roughness by tape stripping and Bradford test; assay type: in vivo, human; conditions: 2% formulation twice daily
Excerpt: The skin roughness can be quantified in a simple way by means of tape stripping. The rougher the skin surface, e.g. because the skin lipid barrier is damaged, the weaker the binding of the skin cells. In some cases, with very rough skin, this can be seen with the naked eye. The outermost corneocytes are removed by tape stripping. In this connection, the more corneocytes stuck to the tape, the rougher the skin. The corneocytes are subsequently determined quantitatively using a commercially available Bradford test. This is based on the following principle: the triphenylmethane dye Coomassie Brilliant Blue G-250 (CBBG) forms complexes in acid solution both with the cationic and the nonpolar hydrophobic side chains of the proteins. […] Since the extinction coefficient of the dye/protein complex is in addition very much higher than that of the free dye, the increase in the absorption at 595 nm through the formation of the complex can be measured photometrically with high sensitivity against the free dye reagent and is a measure of the protein concentration of the solution.
The study was carried out with 12 probands who received two test formulations, one with 2% compound 2.1 and one without. […] Tape strips were taken and analyzed before the beginning of the application and also after 2 weeks and after 4 weeks. […]

[6] = system: IL-1α; test: Anti-inflammatory action of an O/W cream with compound 2.1 (IL-1α after SDS damage); assay type: cell-based, human; conditions: O/W cream with 1% and 4% of compound 2.1 applied after SDS damage
Procedure: as §1
IL-1α is a […] which plays a central role in inflammatory reactions in the body. Sodium lauryl sulphate (SDS) is a skin-irritating surfactant which can give rise to irritant contact dermatitis in man, is used as model irritant in proband studies and, inter alia, induces the release of IL-1α. The IL-1α concentration was determined with a commercially available test kit (human IL-1α immunoassay, R&D Systems GmbH, Wiesbaden, Germany).
It should be investigated whether the anti-inflammatory effect of the short-chain zwitterionic compounds also appears when used from a cosmetic formulation. For this, skin models were damaged with SDS. Subsequently, the test formulation with 1% and 4% of compound 2.1 was applied. The IL-1α concentration was determined 24 and 48 h after application.

[7] = Water retention capacity on an IMS film; conditions: 5.0% in test formulation 3.7; 4 hours at 21-22° C. and 72% R.H.; in comparison with the vehicle
Excerpt: The determination of the water retention capacity of active substances using the IMS film represents a simple screening test by which the moisturizing properties of active substances can be very satisfactorily investigated. The measurement is based on the following principle: The IMS film is a membrane which is covered with peptides, lipids and polymers and represents a greatly simplified skin model. The active substance interacts out of the formulation with the film. Combining with water takes place and thus the evaporation of the water is prevented or made more difficult.
Implementation: • 1. The weight of the IMS membrane is determined (W1). • 2. The test formulation is applied, the film is again weighed (W2) and the film is subsequently incubated at 21-22° C. and 72% R.H. for 4 hours. • 3. After the 4 hours have passed, the film is again weighed (W3). • 4. The water retention capacity of the formulation (WR) is calculated as follows: […]

Compound: C[N+](C)(CCCNC=O)CC(=O)[O-] [Compound 2.1]
- Effectiveness on skin moisture with increasing concentration of use ([1]; 1.0% vs 4.0% in test formulation 3.8): clearly increased with increasing concentration of use
- Skin moisture, increase in corneometer units (ΔCU) ([1]; 1.0/4.0% in test formulation 3.8, 14 probands): very clearly increased
- Effectiveness on LDH release with 4% compared with 1% ([2]; O/W cream with 4% vs 1% of compound 2.1 after SDS damage): no clear increase in the effectiveness
- Reduction of the SDS-induced increase in LDH release (total LDH after 24 and 48 h) ([2]; O/W cream with compound 2.1 applied after 40 min SDS damage, compared with vehicle): clearly intensified
- Viability of the skin cells (XTT) after damaging with SDS [3]: more than redoubled
- Moisture content (ΔCU) after 2 weeks [4]: further enhanced
- Skin roughness (amount of protein on tape strips, based on the vehicle), two weeks ([5]; after using for two weeks, compared with the vehicle): clear reduction
- Skin roughness (amount of protein on tape strips, based on the vehicle), further use ([5]; further use (after 4 weeks)): even more pronounced
- SDS-induced increase in IL-1α (overall concentration after 24 and 48 h) [6]: more strongly reduced in a concentration-dependent fashion
- Water retention capacity (WR) [7]: particularly strongly pronounced
